Assay results as given in patent US11752095B2, “Medroxyprogesterone acetate injectable compositions and methods of use” (Family Health International, priority 2018, dated 2023).
Read-outs that look alike come from different tables or passages of the source.

Experiment: Pharmacokinetics in women (Example 23)
Assay type: in vivo
Conditions: composition with 400 mg/ml MPA; for Cmax / half-life / Tmax / concentration at 28 day / concentration at 91 day / concentration at 182 day: female, human, in vivo
Description: 12 women were sequentially administered medroxyprogesterone acetate. PK was evaluated for at least 182 days. The composition tested was an embodiment of the disclosure and included 400 mg/ml MPA,

In the case of `CC(=O)O[C@]1(C(C)=O)CC[C@H]2[C@@H]3C[C@H](C)C4=CC(=O)CC[C@]4(C)[C@H]3CC[C@@]21C` [medroxyprogesterone acetate], the “AUC0-28, Mean” value (N 6) is reported as 9.84 ng·days/mL, the “AUC0-28, Median” value (N 6) is reported as 9.31 ng·days/mL and the “AUC0-28, Min-Max” value (N 6) is reported as 7.83 to 14.52 ng·days/mL. The “AUC0-91, Mean” value (N 6) was 34.52 ng·days/mL, the “AUC0-91, Median” value (N 6) was 34.87 ng·days/mL and the “AUC0-91, Min-Max” value (N 6) was 23.41 to 44.06 ng·days/mL. For the same molecule, the “AUC0-182, Mean” value (N 6) was 60.21 ng·days/mL, the “AUC0-182, Median” value (N 6) was 60.28 ng·days/mL and the “AUC0-182, Min-Max” value (N 6) was 38.62 to 84.88 ng·days/mL. The Cmax (N 6, read-out: Cmax, Mean) was 0.53 ng/mL, the Cmax (N 6, read-out: Cmax, Median) was 0.55 ng/mL and the Cmax (N 6, read-out: Cmax, Min-Max) was 0.42 to 0.69 ng/mL. For the same molecule, the half-life (N 6, read-out: Half-life, Mean (converted)) was 99.4 days, the half-life (N 6, read-out: Half-life, Median (converted)) was 104 days and the half-life (N 6, read-out: Half-life, Min-Max) was 22.9 to 166 days. For the same molecule, the Tmax (N 6, read-out: Tmax, Mean (converted)) was 17.4 days, the Tmax (N 6, read-out: Tmax, Median (converted)) was 9.49 days and the concentration at 28 day (day 28, N 6, read-out: C28, Mean) was 0.36 ng/mL. For the same molecule, the concentration at 28 day (day 28, N 6, read-out: C28, Median) was 0.36 ng/mL, the concentration at 28 day (day 28, N 6, read-out: C28, Min-Max) was 0.03 to 0.5 ng/mL and the concentration at 91 day (day 91, N 6, read-out: C91, Mean) was 0.41 ng/mL. For the same molecule, the concentration at 91 day (day 91, N 6, read-out: C91, Median) was 0.41 ng/mL, the concentration at 91 day (day 91, N 6, read-out: C91, Min-Max) was 0.26 to 0.63 ng/mL and the concentration at 182 day (day 182, N 6, read-out: C182, Mean) was 0.22 ng/mL. The concentration at 182 day (day 182, N 6, read-out: C182, Median) was 0.22 ng/mL and the concentration at 182 day (day 182, N 6, read-out: C182, Min-Max) was 0.14 to 0.34 ng/mL.
